These results are taken from PubChem BioAssay AID256 (DTP/NCI, 2004).

Where “and” joins values, the source holds several entries; their conditions need not be identical. Equal values may be shown once. Toxic doses and inconclusive results are not listed.

The test system of this assay is CD2F1 mice, L1210 leukemia ip, survival T/C. In words: NCI In Vivo Anticancer Drug Screen. Data for tumor model L1210 Leukemia (intraperitoneal) in CD2F1 (CDF1) mice. The following applies: higher = longer survival. The method in brief: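 Ratio T/C, where T is the treated-group value and C the vehicle-dosed control value, from mice implanted with a transplantable tumor.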

The mark [1] stands for this setting: endpoint: mean survival time, dose: 100.0 mg/kg/injection, schedule: Q04DX003 (ip), vehicle: saline.
Where [2] appears, read: endpoint: mean survival time, dose: 100.0 mg/kg/injection, schedule: Q04DX003 (ip), vehicle: saline with Tween-80.
[3] abbreviates: endpoint: mean survival time, dose: 200.0 mg/kg/injection, schedule: Q04DX003 (ip), vehicle: saline with Tween-80.
Setting [4] is: endpoint: mean survival time, dose: 400.0 mg/kg/injection, schedule: Q04DX003 (ip), vehicle: saline with Tween-80.
[5] abbreviates: endpoint: mean survival time, dose: 200.0 mg/kg/injection, schedule: Q04DX003 (ip), vehicle: saline.

For the compound `O=C(O)c1[nH]nc(-c2ccc([N+](=O)[O-])cc2)c1[N+](=O)[O-]`, the T/C reads like this: (endpoint: mean survival time, dose: 4.7 mg/kg/injection, schedule: Q01DX005 (ip), vehicle: water) 86 % of control; (endpoint: mean survival time, dose: 9.4 mg/kg/injection, schedule: Q01DX005 (ip), vehicle: water) 90 % of control; (endpoint: mean survival time, dose: 18.8 mg/kg/injection, schedule: Q01DX005 (ip), vehicle: water) 90 % of control; (endpoint: mean survival time, dose: 37.5 mg/kg/injection, schedule: Q01DX005 (ip), vehicle: water) 104 % of control; (endpoint: mean survival time, dose: 50.0 mg/kg/injection, schedule: Q01DX005 (ip), vehicle: water) 97 % of control; (endpoint: mean survival time, dose: 75.0 mg/kg/injection, schedule: Q01DX005 (ip), vehicle: water) 93 % of control. In addition, the T/C was 93 % of control (endpoint: mean survival time, dose: 100.0 mg/kg/injection, schedule: Q01DX005 (ip), vehicle: water); 89 % of control (endpoint: mean survival time, dose: 200.0 mg/kg/injection, schedule: Q01DX005 (ip), vehicle: water); 101 % of control (endpoint: mean survival time, dose: 400.0 mg/kg/injection, schedule: Q01DX005 (ip), vehicle: water).

Turning to `CCN(CC)CC(=O)O[C@]1(CC)C(=O)OCc2c1cc1n(c2=O)Cc2cc3ccccc3nc2-1`, the T/C by setting is: (endpoint: median survival time, dose: 1.0 mg/kg/injection, schedule: Q01DX009 (ip), vehicle: water) 124 % of control and 109 % of control; (endpoint: median survival time, dose: 3.75 mg/kg/injection, schedule: Q04DX002 (ip), vehicle: water) 114 % of control and 109 % of control; (endpoint: median survival time, dose: 3.75 mg/kg/injection, schedule: Q04HX004 (iv), vehicle: other) 150 % of control; (endpoint: median survival time, dose: 4.0 mg/kg/injection, schedule: Q01DX009 (ip), vehicle: water) 154 % of control and 163 % of control; (endpoint: median survival time, dose: 7.5 mg/kg/injection, schedule: Q04DX002 (ip), vehicle: water) 124 % of control; (endpoint: median survival time, dose: 7.5 mg/kg/injection, schedule: Q04HX004 (iv), vehicle: dextrose) 183 % of control. Also, the T/C runs as follows: (endpoint: median survival time, dose: 7.5 mg/kg/injection, schedule: Q04HX004 (iv), vehicle: other) 175 % of control; (endpoint: median survival time, dose: 8.0 mg/kg/injection, schedule: Q01DX009 (ip), vehicle: water) 113 % of control; (endpoint: median survival time, dose: 15.0 mg/kg/injection, schedule: Q04DX002 (ip), vehicle: water) 157 % of control; (endpoint: median survival time, dose: 15.0 mg/kg/injection, schedule: Q04HX004 (iv), vehicle: dextrose) 218 % of control; (endpoint: median survival time, dose: 15.0 mg/kg/injection, schedule: Q04HX004 (iv), vehicle: other) 203 % of control; (endpoint: median survival time, dose: 30.0 mg/kg/injection, schedule: Q04DX002 (ip), vehicle: water) 223 % of control and 256 % of control. Also, the T/C was 204 % of control (endpoint: median survival time, dose: 30.0 mg/kg/injection, schedule: Q04HX004 (iv), vehicle: dextrose) and 268 % of control (endpoint: median survival time, dose: 30.0 mg/kg/injection, schedule: Q04HX004 (iv), vehicle: other).

Consider `Cc1ccccc1NC(=O)CN(C)C`, for which the T/C is, setting by setting: (endpoint: mean survival time, dose: 100.0 mg/kg/injection, schedule: Q01DX001 (ip), vehicle: other) 98 % of control; (endpoint: mean survival time, dose: 200.0 mg/kg/injection, schedule: Q01DX001 (ip), vehicle: other) 103 % of control.

For `CCOC(=O)c1ccc(Oc2ncc([N+](=O)[O-])s2)cc1`, the T/C runs as follows: (endpoint: mean survival time, dose: 4.95 mg/kg/injection, schedule: Q01DX009 (ip), vehicle: saline with Tween-80) 100 % of control; (endpoint: mean survival time, dose: 7.42 mg/kg/injection, schedule: Q01DX009 (ip), vehicle: saline with Tween-80) 95 % of control.

In the case of `O=C(NCc1ccccc1)c1ccccc1/C(=N/O)c1ccccc1`, the T/C by setting is: (endpoint: mean survival time, dose: 100.0 mg/kg/injection, schedule: Q01DX001 (ip), vehicle: saline sonified) 92 % of control; (endpoint: mean survival time, dose: 200.0 mg/kg/injection, schedule: Q01DX001 (ip), vehicle: saline sonified) 94 % of control; (endpoint: mean survival time, dose: 400.0 mg/kg/injection, schedule: Q01DX001 (ip), vehicle: saline sonified) 88 % of control.

`Cc1noc(C)c1CC1(c2ccccc2)CCCCC1=O` (stereo not given): the T/C reads like this: (endpoint: mean survival time, dose: 100.0 mg/kg/injection, schedule: Q01DX001 (ip), vehicle: Klucel (hydroxypropylcellulose) (HPC)) 92 % of control; (endpoint: mean survival time, dose: 200.0 mg/kg/injection, schedule: Q01DX001 (ip), vehicle: Klucel (hydroxypropylcellulose) (HPC)) 92 % of control; (endpoint: mean survival time, dose: 400.0 mg/kg/injection, schedule: Q01DX001 (ip), vehicle: Klucel (hydroxypropylcellulose) (HPC)) 86 % of control.

For the compound `Oc1ccc(I)c2cccnc12`, the T/C (endpoint: mean survival time, dose: 12.5 mg/kg/injection, schedule: Q01DX009 (ip), vehicle: saline with Tween-80) was 98 % of control; the T/C (endpoint: mean survival time, dose: 25.0 mg/kg/injection, schedule: Q01DX009 (ip), vehicle: saline with Tween-80) was 98 % of control; the T/C (endpoint: mean survival time, dose: 45.0 mg/kg/injection, schedule: Q01DX009 (ip), vehicle: saline) was 97 % of control; the T/C (endpoint: mean survival time, dose: 50.0 mg/kg/injection, schedule: Q01DX009 (ip), vehicle: saline with Tween-80) was 98 % of control; the T/C (endpoint: mean survival time, dose: 90.0 mg/kg/injection, schedule: Q01DX009 (ip), vehicle: saline) was 108 % of control; the T/C (endpoint: mean survival time, dose: 100.0 mg/kg/injection, schedule: Q01DX009 (ip), vehicle: saline with Tween-80) was 98 % of control. Moreover, the T/C reads like this: (endpoint: mean survival time, dose: 180.0 mg/kg/injection, schedule: Q01DX009 (ip), vehicle: saline) 112 % of control; (endpoint: mean survival time, dose: 200.0 mg/kg/injection, schedule: Q01DX009 (ip), vehicle: saline with Tween-80) 104 % of control.

Turning to `NC(=O)CCl`, the T/C under setting [1] was 110 % of control.

Regarding `COC(=O)c1n[nH]c(C(C)C)c1N=NN(C)C`, the T/C reads like this: (endpoint: mean survival time, dose: 37.5 mg/kg/injection, schedule: Q01DX009 (ip), vehicle: saline with Tween-80) 106 % of control; (endpoint: mean survival time, dose: 75.0 mg/kg/injection, schedule: Q01DX009 (ip), vehicle: saline with Tween-80) 121 % of control; (endpoint: mean survival time, dose: 150.0 mg/kg/injection, schedule: Q01DX009 (ip), vehicle: saline with Tween-80) 92 % of control.

As to `COc1cc(NC(=O)Nc2ccccc2C)c(OC)cc1Cl`, the T/C was 90 % of control (endpoint: mean survival time, dose: 100.0 mg/kg/injection, schedule: Q04DX002 (ip), vehicle: saline with Tween-80); 90 % of control (endpoint: mean survival time, dose: 200.0 mg/kg/injection, schedule: Q04DX002 (ip), vehicle: saline with Tween-80); 86 % of control (endpoint: mean survival time, dose: 400.0 mg/kg/injection, schedule: Q04DX002 (ip), vehicle: saline with Tween-80).

In the case of `CN(C)c1ccn(C2OC(CO)C(O)C2SC(C)(C)C)c(=O)n1` (stereo not given), the T/C is, setting by setting: (endpoint: median survival time, dose: 12.5 mg/kg/injection, schedule: Q01DX005 (ip), vehicle: saline) 100 % of control; (endpoint: median survival time, dose: 25.0 mg/kg/injection, schedule: Q01DX005 (ip), vehicle: saline) 99 % of control; (endpoint: median survival time, dose: 50.0 mg/kg/injection, schedule: Q01DX005 (ip), vehicle: saline) 97 % of control; (endpoint: median survival time, dose: 100.0 mg/kg/injection, schedule: Q01DX005 (ip), vehicle: saline) 104 % of control; (endpoint: median survival time, dose: 200.0 mg/kg/injection, schedule: Q01DX005 (ip), vehicle: saline) 96 % of control.

On to `C1=NOC2c3ccc4ccccc4c3CCC12` (stereo not given), for which the T/C is, setting by setting: (endpoint: mean survival time, dose: 100.0 mg/kg/injection, schedule: Q04DX003 (ip), vehicle: Klucel (hydroxypropylcellulose) (HPC)) 100 % of control; (endpoint: mean survival time, dose: 200.0 mg/kg/injection, schedule: Q04DX003 (ip), vehicle: Klucel (hydroxypropylcellulose) (HPC)) 101 % of control; (endpoint: mean survival time, dose: 400.0 mg/kg/injection, schedule: Q04DX003 (ip), vehicle: Klucel (hydroxypropylcellulose) (HPC)) 107 % of control.

For the compound `S=C(S)NC1CCCCCCCCCCC1`, the T/C was 102 % of control under setting [2], 100 % of control under setting [3] and 93 % of control under setting [4].

Consider `CNNCCC(=O)NC(C)C`, for which the T/C (endpoint: mean survival time, dose: 25.0 mg/kg/injection, schedule: Q04DX003 (ip), vehicle: saline) was 106 % of control; the T/C (endpoint: mean survival time, dose: 50.0 mg/kg/injection, schedule: Q04DX003 (ip), vehicle: saline) is 103 % of control; the T/C under setting [1] was 101 % of control; the T/C under setting [5] was 91 % of control.

On to `CCN(CC)C(=S)N1C(=O)C2C3CCC(O3)C2C1=O` (stereo not given), for which the T/C (endpoint: mean survival time, dose: 25.0 mg/kg/injection, schedule: Q04DX002 (ip), vehicle: saline with Tween-80) is 93 % of control.

Turning to `OCC1OC(OC2C(CO)OC(Sc3ccccc3)C(O)C2O)C(O)C(O)C1O` (stereo not given), the T/C by setting is: under setting [2], 97 % of control; under setting [1], 103 % of control; under setting [3], 95 % of control; under setting [5], 103 % of control; under setting [4], 97 % of control; (endpoint: mean survival time, dose: 400.0 mg/kg/injection, schedule: Q04DX003 (ip), vehicle: saline) 95 % of control.
